pEC50: −log10 of the molar value.

Among the data in patent US11590155B2, “Substituted nucleosides, nucleotides and analogs thereof” (priority 2014, dated 2023) are EC50 values, retold here.

This experiment deals with Ebola. Nature of the experiment: microbe, parasite or virus in culture. Format: cell-based. Particulars: Zaire ebolavirus, HeLa, read-out: EC50 against Ebola.
For `[N-]=[N+]=NC[C@]1(CO)O[C@@H](n2ccc(N)nc2=O)[C@H](F)[C@@H]1O` [Compound 106], the negative-log EC50 (pEC50) was > 5.70.

With `Nc1ccn([C@@H]2O[C@@](CO)(CCl)[C@@H](O)[C@H]2F)c(=O)n1` [compound 315], the pEC50 is > 4.60.

As for `[N-]=[N+]=N[C@]1(CO)O[C@@H](n2ccc(N)nc2=O)[C@H](F)[C@@H]1O` [compound 332], the pEC50 is > 5.70.
